Measured values: patent US6462039B1, “Fungicidal benzoheterocyclyloxime” (Bayer Aktiengesellschaft, priority 1998, dated 2002)
Like-named read-outs stand apart in the source and are kept apart here.

Assays:
[1] = test system: Erysiphe graminis f.sp. hordei; assay: Erysiphe test (barley)/protective; format: in vivo; conditions: protective, application rate 250 g/ha, evaluation 7 days after inoculation
Method: Erysiphe Test (Barley)/Protective Solvent: 25 parts by weight of N,N-dimethylacetamide Emulsifier: 0.6 part by weight of alkylaryl polyglycol ether To produce a suitable preparation of active compound 1 part by weight of active compound is mixed with the stated amounts of solvent and emulsifier and the concentrate is diluted with water to the desired concentration. To test for protective activity, young plants are sprayed with the preparation of active compound at the stated application rate. After the spray coating has dried on, the plants are dusted with spores of Erysiphe graminis f.sp. hordei. The plants are placed in a greenhouse at a temperature of approximately 20° C. and a relative atmospheric humidity of approximately 80% to promote the development of mildew pustules.

[2] = test system: Fusarium nivale (var. nivale); assay: Fusarium nivale (var. nivale) test (wheat)/protective; format: in vivo; conditions: protective, application rate 250 g/ha, evaluation 4 days after inoculation
Source text: Fusarium Nivale (Var. Nivale) Test (Wheat)/Protective Solvent: 25 parts by weight of N,N-dimethylacetamide Emulsifier: 0.6 part by weight of alkylaryl polyglycol ether […] To test for protective activity, young plants are sprayed with the preparation of active compound at the stated application rate. After the spray coating has dried on, the plants are sprayed with a conidia suspension of Fusarium nivale (var. nivale).

Puccinia recondita = assay: Puccinia test (wheat)/protective; format: in vivo; conditions: protective, application rate 250 g/ha, evaluation 10 days after inoculation
Method: Puccinia Test (Wheat)/Protective Solvent: 25 parts by weight of N,N-dimethylacetamide Emulsifier: 0.6 part by weight of alkylaryl polyglycol ether […] To test for protective activity, young plants are sprayed with the preparation of active compound at the stated application rate. After the spray coating has dried on, the plants are dusted with a conidia suspension of Puccinia recondita. […] The plants are then placed in a greenhouse at a temperature of approximately 20° C. and a relative atmospheric humidity of 80% to promote the development of rust pustules.

[3] = test system: Erysiphe graminis f.sp. hordei; assay: Erysiphe test (barley)/curative; format: in vivo; conditions: curative (sprayed 48 hours after inoculation), application rate 250 g/ha, evaluation 7 days after inoculation
Method: Erysiphe Test (Barley)/Curative Solvent: 25 parts by weight of N,N-dimethylacetamide Emulsifier: 0.6 part of weight of alkylaryl polyglycol ether To produce a suitable preparation of active compound 1 part by weight of active compound is mixed with the stated amounts of solvent and emulsifier and the concentrate is diluted with water to the desired concentration. To test for curative activity, young plants are dusted with spores of Erysiphe graminis f.sp. hordei. 48 hours after the inoculation, the plants are sprayed with the preparation of active compound at the stated application rate. The plants are placed in a greenhouse at a temperature of approximately 20° C. and a relative atmospheric humidity of approximately 80% to promote the development of mildew pustules.

Method for physchem: The logP values were determined in accordance with EEC Directive 79/831 Annex V. A8 by HPLC (gradient method, acetonitrile/0.1% aqueous phosphoric acid)

Structure (SMILES)	chromatographic logP	chromatographic logP (physchem)	other results
CCCn1nc(C(C)=O)c2ccccc21 [(V-3)]	2.81	–	–
CC(=O)c1cn(C(F)F)c2ccccc12 [(V-7)]	2.22	–	–
CC(=O)c1nn(C(C)C)c2ccccc12 [(V-5)]	2.98	–	–
CO/N=C(/C1=NOCCO1)c1ccccc1CO/N=C(\C)c1nn(C)c2ccccc12 [Example 1, O-{2-[(5,6-dihydro-[1,4,2]dioxazin-3-yl)-methoxyiminomethyl]-benzyl}1-(1-methyl-1H-indazol-3-yl)-ethanone-oxime]	–	–	efficacy [1]: 100%; efficacy [2]: 100%; efficacy (Puccinia recondita): 100%; efficacy [3]: 100%
C=CCn1nc(C(C)=O)c2ccccc21 [(V-4)]	2.53	–	–
CCn1nc(/C(C)=N\O)c2ccccc21 [(II-a-2)]	–	2.13	–
C=CCn1nc(/C(C)=N\O)c2ccccc21 [(II-a-4)]	–	2.28	–
CC(=O)c1nn(C(F)F)c2ccccc12 [Example (V-1), 1-(1-difluoromethyl-1H-indazol-3-yl)-ethanone]	2.67	–	–
C/C(=N/O)c1nn(C(C)C)c2ccccc12 [(II-a-5)]	–	2.72	–
COc1ccc2c(/C(C)=N\O)nn(C)c2c1 [(II-a-6)]	–	1.76	–
CCCn1nc(/C(C)=N\O)c2ccccc21 [(II-a-3)]	–	2.55	–
CCn1cc(C(C)=O)c2ccccc21 [(V-2)]	2.35	–	–
C/C(=N/O)c1cn(C(F)F)c2ccccc12 [(II-a-7)]	–	2.25	–
COc1ccc2c(C(C)=O)nn(C)c2c1 [(V-6)]	–	1.99	–
